Common to all, as to assay type: cell-based
One test deals with wild-type E. coli A-1261. The test is described as follows: MIC against wild-type E. coli A-1261 with or without alkaline phosphatase or esterase. The following applies: Escherichia coli. As for the experimental part: Minimal Inhibitory Concentrations (MICs; mg/L) were determined in cation-adjusted Mueller-Hinton Broth by a microdilution method following the description given in “Methods for Dilution Antimicrobial Susceptibility Tests for Bacteria that Grow Aerobically”, Approved standard, 7th ed., a Clinical and Laboratory Standards Institute (CLSI) Document M7-A7, Wayne, Pa., USA (2006).
The compounds of Examples 37, 50, 51 and 74 were tested against wild-type E. coli A-1261 in the absence of alkaline phosphatase or esterase, in the presence of an alkaline phosphatase and in the presence of an esterase. The corresponding antibacterial test results are given in Table 2 hereafter (MICs in mg/L).

The subject of the next test is E. coli ATCC25922. Briefly: Bacterial growth minimal inhibitory concentration (microdilution, cation-adjusted Mueller-Hinton Broth). The following applies: quinolone-sensitive strain; for MIC: Escherichia coli, ATCC25922, read-out: MIC for E. coli ATCC25922. Put shortly: (§1)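 Broth microdilution in cation-adjusted Mueller-Hinton Broth per CLSI M7-A7, MIC in mg/L. K. pneumoniae A-651 is multiply resistant, including to quinolones. E. coli ATCC25922 and P. aeruginosa ATCC27853 are quinolone-sensitive.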
(In general: Broth dilution looks for growth in wells or tubes with falling amounts of substance.)

The test system of the next test is K. pneumoniae A-651. The test is described as above. Conditions: multiply-resistant strain (in particular quinolone-resistant); for MIC: Klebsiella pneumoniae, A651, read-out: MIC for K. Pneumoniae A-651. A digest of the protocol:
as §1

Another test deals with P. aeruginosa ATCC27853. The description is as above. The following applies: for MIC: Pseudomonas aeruginosa, ATCC27853, quinolone-sensitive strain, read-out: MIC for P. aeruginosa ATCC27853. A digest of the protocol: as §1
The mark [1] stands for this setting: read-out: MIC for E. coli A-1261 In the absence of alkaline phosphatase or esterase.
Where [2] appears, read: read-out: MIC for E. coli A-1261 In the presence of an alkaline phosphatase (2 i.U./mL).
Setting [3] is: read-out: MIC for E. coli A-1261 In the presence of an esterase (10 i.U./mL).

Values after ≈ are worked out from the molar mass of the structure shown. Read-outs that look alike come from different tables or passages of the source.

With `CN(C)CC(=O)OCC1(C#CC#Cc2cc3n(c2)C(=O)N(CC[C@](C)(C(=O)NO)S(C)(=O)=O)C3)CC1.Cl` [Example 50, (R)-(1-((2-(4-(hydroxyamino)-3-methyl-3-(methylsulfonyl)-4-oxobutyl)-3-oxo-2,3-dihydro-1H-pyrrolo[1,2-c]imidazol-6-yl)buta-1,3-diyn-1-yl)cyclopropyl)methyl dimethylglycinate hydrochloride], the MIC in the test on wild-type E. coli A-1261 (setting [1]) worked out at 2 µg/mL; with wild-type E. coli A-1261 (setting [2]), 1 µg/mL; in the test with wild-type E. coli A-1261 (setting [3]) it was 0.5 µg/mL.

For the compound `C[C@@](CCN1Cc2cc(C#CC#CC3(COP(=O)(O)O)CC3)cn2C1=O)(C(=O)NO)S(C)(=O)=O` [Example 51, (R)-(1-((2-(4-(hydroxyamino)-3-methyl-3-(methylsulfonyl)-4-oxobutyl)-3-oxo-2,3-dihydro-1H-pyrrolo[1,2-c]imidazol-6-yl)buta-1,3-diyn-1-yl)cyclopropyl)methyl dihydrogen phosphate], the MIC in the test on wild-type E. coli A-1261 (setting [1]) is above 16 µg/mL; in the test on wild-type E. coli A-1261 (setting [2]), 0.5 µg/mL; in the test with wild-type E. coli A-1261 (setting [3]), 16 µg/mL.

Turning to `C[C@@](CCN1Cc2cc(C#CC#CC3(NC(=O)OCOP(=O)(O)O)CC3)cn2C1=O)(C(=O)NO)S(C)(=O)=O` [Example 74, (phosphonooxy)methyl (R)-(1-((2-(4-(hydroxyamino)-3-methyl-3-(methylsulfonyl)-4-oxobutyl)-3-oxo-2,3-dihydro-1H-pyrrolo[1,2-c]imidazol-6-yl)buta-1,3-diyn-1-yl)cyclopropyl)carbamate], the MIC was 4 µg/mL (≈ 6.99 µM) in the test on wild-type E. coli A-1261 (setting [1]), 0.25 µg/mL with wild-type E. coli A-1261 (setting [2]) and 4 µg/mL in the test with wild-type E. coli A-1261 (setting [3]).

Turning to `CN(C)CC(=O)OCC1(c2ccc(C#Cc3cc4n(c3)C(=O)N(CC[C@](C)(C(=O)NO)S(C)(=O)=O)C4)cc2)CC1.Cl` [Example 37, (R)-(1-(4-((2-(4-(hydroxyamino)-3-methyl-3-(methylsulfonyl)-4-oxobutyl)-3-oxo-2,3-dihydro-1H-pyrrolo[1,2-c]imidazol-6-yl)ethynyl)phenyl)cyclopropyl)methyl dimethylglycinate hydrochloride], the MIC turned out to be 0.5 µg/mL in the test on E. coli ATCC25922; 1 µg/mL in the test on K. pneumoniae A-651; 4 µg/mL in the test on P. aeruginosa ATCC27853; 0.25 µg/mL in the test with wild-type E. coli A-1261 (setting [1]); 0.125 µg/mL in the test with wild-type E. coli A-1261 (setting [2]); 0.25 µg/mL in the test with wild-type E. coli A-1261 (setting [3]).

In the case of `C[C@@](CCN1Cc2cc(-c3ccc(OC[C@H](O)CO)cc3F)cn2C1=O)(C(=O)NO)S(C)(=O)=O` [Example 43, (R)-4-(6-(4-((R)-2,3-dihydroxypropoxy)-2-fluorophenyl)-3-oxo-1H-pyrrolo[1,2-c]imidazol-2(3H)-yl)-N-hydroxy-2-methyl-2-(methylsulfonyl)butanamide], the MIC in the test with E. coli ATCC25922 was found to be 8 µg/mL (≈ 16 µM); in the test with K. pneumoniae A-651, 16 µg/mL (≈ 32 µM); in the test with P. aeruginosa ATCC27853, 8 µg/mL (≈ 16 µM).

Turning to `C[C@@](CCN1Cc2cc(C#CC#C[C@@]3(F)C[C@@H]3CO)cn2C1=O)(C(=O)NO)S(C)(=O)=O` (relative stereo) [Example 66, (R)-4-(6-(((1R*,2R*)-1-fluoro-2-(hydroxymethyl)cyclopropyl)buta-1,3-diyn-1-yl)-3-oxo-1H-pyrrolo[1,2-c]imidazol-2(3H)-yl)-N-hydroxy-2-methyl-2-(methylsulfonyl)butanamide], the MIC in the test on E. coli ATCC25922 amounted to 0.125 µg/mL (≈ 0.277 µM); in the test on K. pneumoniae A-651, 0.5 µg/mL (≈ 1.11 µM); in the test with P. aeruginosa ATCC27853 it was 1 µg/mL (≈ 2.21 µM).

In the case of `C[C@@](CCN1Cc2cc(C#CC#C[C@@H]3C[C@@H](O)[C@@H](O)C3)cn2C1=O)(C(=O)NO)S(C)(=O)=O` [Example 33, (R)-4-(6-(((1S,3R,4S)-3,4-dihydroxycyclopentyl)buta-1,3-diyn-1-yl)-3-oxo-1H-pyrrolo[1,2-c]imidazol-2(3H)-yl)-N-hydroxy-2-methyl-2-(methylsulfonyl)butanamide], the “MIC for E. coli ATCC25922” value against E. coli ATCC25922 was found to be 0.5 µg/mL. Moreover, the “MIC for K. Pneumoniae A-651” value against K. pneumoniae A-651 came to 0.5 µg/mL. Besides, in the test with P. aeruginosa ATCC27853 (quinolone-sensitive strain), the “MIC for P. aeruginosa ATCC27853” value came to 1 µg/mL.

In the case of `COc1ccc(-c2cc3n(c2)C(=O)N(CC[C@](C)(C(=O)NO)S(C)(=O)=O)C3)c(F)c1` [Example 1, (R)-4-(6-(2-fluoro-4-methoxyphenyl)-3-oxo-1H-pyrrolo[1,2-c]imidazol-2(3H)-yl)-N-hydroxy-2-methyl-2-(methylsulfonyl)butanamide], the MIC in the test with E. coli ATCC25922 is 0.125 µg/mL (≈ 0.284 µM); in the test on K. pneumoniae A-651, at most 0.063 µg/mL; in the test on P. aeruginosa ATCC27853, 1 µg/mL (≈ 2.28 µM).

`C[C@@](CCN1Cc2cc(C#CC#CC3(CO)CCC3)cn2C1=O)(C(=O)NO)S(C)(=O)=O` [Example 56, (R)-N-hydroxy-4-(6-((1-(hydroxymethyl)cyclobutyl)buta-1,3-diyn-1-yl)-3-oxo-1H-pyrrolo[1,2-c]imidazol-2(3H)-yl)-2-methyl-2-(methylsulfonyl)butanamide]: the MIC in the test on E. coli ATCC25922 came to 0.25 µg/mL (≈ 0.559 µM); in the test on K. pneumoniae A-651, 1 µg/mL (≈ 2.23 µM); with P. aeruginosa ATCC27853 it was 2 µg/mL (≈ 4.47 µM).

For the compound `C[C@@](CCN1Cc2cc(C#Cc3ccc([C@H]4C[C@@H]4CO)cc3)cn2C1=O)(C(=O)NO)S(C)(=O)=O` [Example 6, (R)-N-hydroxy-4-(6-((4-((1S,2S)-2-(hydroxymethyl)cyclopropyl)phenyl)ethynyl)-3-oxo-1H-pyrrolo[1,2-c]imidazol-2(3H)-yl)-2-methyl-2-(methylsulfonyl)butanamide], the MIC was 0.031 µg/mL (≈ 0.0638 µM) in the test on E. coli ATCC25922, 0.125 µg/mL (≈ 0.257 µM) in the test on K. pneumoniae A-651 and 0.5 µg/mL (≈ 1.03 µM) in the test on P. aeruginosa ATCC27853.

Values taken from US10106544B2, “1,2-dihydro-3H-pyrrolo[1,2-C]imidazol-3-one derivatives and their use as antibacterial agents” (priority 2014, dated 2018).
